The target in one data set is T1, human PDE4B1 (Homo sapiens, UniProt Q07343).
T1 construct: host or cells: Sf9 cells
The data set is described as follows: cAMP HTRF assay to determine the activity of hPDE4B1. It is filed as biochemical. The following applies: for inhibition at 1 µM: 1 μM test concentration, human recombinant PDE4B1, cAMP 40 nM, read-out: Inhibition at 1 μM test concentration [%] (Percentage inhibition of PDE4B); for IC50: measured according to the cAMP HTRF hPDE4B1 assay, read-out: PDE4B IC50. How it is done:
cAMP HTRF® Assay to Determine the Activity of hPDE4B1
The inhibiting effect of the compounds on the enzyme activity of human PDE4B1 was measured by the quantification of 5′-adenosine monophosphate (5′-AMP), which is formed from 3′,5′-adenosine monophosphate (cAMP). Human recombinant enzyme, expressed in Sf9 cells, and the HTRF (homogeneous time-resolved fluorescence) detection method were used in the assay.
The test compound or water (control) was mixed with the human recombinant PDE4B1 enzyme (4.8 U) in a buffer consisting of 44.4 mM tris-HCl, 5.28 mM MgCl2, 2.64 mM DTT and 0.044% Tween 20 (pH 7.8). After adding the cAMP enzyme substrate (final concentration 40 nM) the mixture was incubated for 30 minutes at room temperature. Then a fluorescence acceptor (Dye2 marked with cAMP), a fluorescence donor (anti-cAMP antibody marked with a europium cryptate) and the non-specific phosphodiesterase inhibitor IBMX (3-isobutyl-1-methylxanthine; final concentration 1 mM) were added. After 60 minutes the fluorescence transfer, which correlates with the amount of remaining cAMP, was measured with a microplate reader (Rubystar, BMG) at λex=337 nm, λem=620 nm and λem=665 nm. The enzyme activity was calculated from the quotient formed from the measured signal at 665 nm and that at 620 nm. The result was expressed as the percentage inhibition of enzyme activity of the control (without PDE4 inhibitor) (literature: N. Saldou et al., Comparison of recombinant human PDE4 isoforms: interaction with substrate and inhibitors, Cell. Signal. Vol. 10, No. 6, 427-440, 1998). The enzyme was omitted for measurement of the basal control.
In general terms: TR-FRET usually uses a lanthanide donor and a delayed reading to cut background.

T1 sequence (Q07343 whole entry): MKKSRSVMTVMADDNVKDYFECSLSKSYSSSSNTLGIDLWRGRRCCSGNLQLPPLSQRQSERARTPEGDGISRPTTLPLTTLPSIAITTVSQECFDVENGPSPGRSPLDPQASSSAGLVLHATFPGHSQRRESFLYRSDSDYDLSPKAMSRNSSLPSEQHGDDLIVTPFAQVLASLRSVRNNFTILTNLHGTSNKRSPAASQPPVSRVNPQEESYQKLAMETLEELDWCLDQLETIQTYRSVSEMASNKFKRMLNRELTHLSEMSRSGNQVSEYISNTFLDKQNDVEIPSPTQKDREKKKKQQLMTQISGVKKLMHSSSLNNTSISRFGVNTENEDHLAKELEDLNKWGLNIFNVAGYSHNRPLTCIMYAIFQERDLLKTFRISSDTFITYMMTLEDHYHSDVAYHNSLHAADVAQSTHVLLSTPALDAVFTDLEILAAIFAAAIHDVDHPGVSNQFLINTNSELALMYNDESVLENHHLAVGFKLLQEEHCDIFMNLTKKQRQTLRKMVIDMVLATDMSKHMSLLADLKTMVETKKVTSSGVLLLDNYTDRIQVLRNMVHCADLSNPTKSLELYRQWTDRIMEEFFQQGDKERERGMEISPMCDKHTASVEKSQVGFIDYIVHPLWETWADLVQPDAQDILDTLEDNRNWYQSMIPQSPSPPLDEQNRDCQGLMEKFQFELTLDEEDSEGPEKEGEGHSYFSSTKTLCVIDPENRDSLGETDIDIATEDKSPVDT

`COc1ccc(-c2nc3c(c(Oc4ccc(CC(=O)O)cc4)n2)CCC3)cc1Br` [Compound 14, 2-(4-(2-(3-Bromo-4-methoxyphenyl)-6,7-dihydro-5H-cyclopenta[d]pyrimidin-4-yloxy)phenyl)acetic acid]: the melting point was 263 to 264 °C. In addition, the inhibition at 1 µM at human PDE4B1 was 68%. On to `O=C(O)Cc1ccc(Oc2nc(-c3ccc(Cl)s3)nc3c2CSC3)cc1` [Compound 19, 2-(4-(2-(5-Chlorothiophen-2-yl)-5,7-dihydrothieno[3,4-d]pyrimidin-4-yloxy)phenyl)acetic acid], for which, on human PDE4B1, the inhibition at 1 µM is 98% and the IC50 is below 100 nM. As for `O=C(O)Cc1ccc(Oc2nc(-c3ccc(O)c(Cl)c3)nc3c2CCC3)cc1` [Compound 13, 2-(4-(2-(3-Chloro-4-hydroxyphenyl)-6,7-dihydro-5H-cyclopenta[d]pyrimidin-4-yloxy)phenyl)acetic acid], the inhibition at 1 µM on human PDE4B1 worked out at 72%. For the compound `O=C(O)Cc1ccc(Oc2nc(-c3ccc(Cl)s3)nc3c2CS(=O)(=O)CC3)cc1` [Compound 24, 2-[4-[[2-(5-Chloro-thiophen-2-yl)-6,6-dioxo-7,8-dihydro-5H-thiopyrano[4,3-d]pyrimidin-4-yl]oxy]-phenyl]-acetic acid], at human PDE4B1, the inhibition at 1 µM was determined as 33%. On the same count and under the same terms, the figure for `Cc1sc(-c2nc3c(c(Oc4ccc(CC(=O)O)cc4)n2)CCC3)cc1Br` [Compound 50, 2-(4-(2-(4-Bromo-5-methylthiophen-2-yl)-6,7-dihydro-5H-cyclopenta[d]pyrimidin-4-yloxy)phenyl)acetic acid] is 47%; for `O=C(O)Cc1ccc(Oc2nc(-c3ccc(Br)s3)nc3c2CCC3)cc1` [Compound 49, 2-(4-(2-(5-Bromothiophen-2-yl)-6,7-dihydro-5H-cyclopenta[d]pyrimidin-4-yloxy)phenyl)acetic acid] it is 59%; for `N#Cc1ccc(-c2nc3c(c(Oc4ccc(CC(=O)O)cc4)n2)CCC3)s1` [Compound 48, 2-(4-(2-(5-Cyanothiophen-2-yl)-6,7-dihydro-5H-cyclopenta[d]pyrimidin-4-yloxy)phenyl)acetic acid] it is 78%. On the same count and under the same terms, as for `O=C(O)Cc1ccc(Oc2nc(-c3ccc(Cl)s3)nc3c2C[S+]([O-])CC3)cc1` (centres unmarked) [Compound 23, 2-[4-[[2-(5-Chloro-thiophen-2-yl)-6-oxo-7,8-dihydro-5H-thiopyrano[4,3-d]pyrimidin-4-yl]oxy]-phenyl]-acetic acid], the figure is 18%. Take `O=C(O)Cc1ccc(Oc2nc(-c3ccc(Cl)s3)nc3c2CS(=O)(=O)C3)cc1` [Compound 21, 2-[4-[[2-(5-Chloro-thiophen-2-yl)-6,6-dioxo-5,7-dihydro-thieno[3,4-d]pyrimidin-4-yl]oxy]-phenyl]-acetic acid]: at human PDE4B1, the inhibition at 1 µM stood at 91% and the IC50 was below 100 nM.

`CS(=O)(=O)c1ccc(-c2nc3c(c(Oc4ccc(CC(=O)O)cc4)n2)CCC3)s1` [Compound 52, 2-(4-(2-(5-(Methylsulfonyl)thiophen-2-yl)-6,7-dihydro-5H-cyclopenta[d]pyrimidin-4-yloxy)phenyl)acetic acid]: the inhibition at 1 µM on human PDE4B1 turned out to be 53%.

Consider `Cc1ccc(-c2nc3c(c(Oc4ccc(CC(=O)O)cc4)n2)CCC3)s1` [Compound 58, 2-(4-((2-(5-Methylthiophen-2-yl)-6,7-dihydro-5H-cyclopenta[d]pyrimidin-4-yl)oxy)phenyl)acetic acid], for which the inhibition at 1 µM on human PDE4B1 was 65%.

One may read the melting point as the temperature of the solid-liquid transition. Broadly, the IC50 is the concentration at which inhibition is half-maximal.

The record behind these values is patent US9670189B2, “Substituted condensed pyrimidine compounds” (GRÜNENTHAL GMBH, priority 2013, dated 2017).
